From patent US20220339144A1, “PYRIDINYL INDOLE COMPOUNDS AND METHODS OF USE THEREOF” (Chinook Therapeutics Canada, Inc., priority 2021, published 2022)

Tests used:
[1] = biological target: T1, AMPKα1β2γ1 (Homo sapiens, UniProt O43741+Q13131); assay: AMPKα1β2γ1 biochemical assay (LabChip EZ Reader mobility shift); settings: second EC50 column of Table 1 (head repeats α1β1γ1; text says α1β2γ1 isoform); read-out: Human AMPK AMPKα1β1γ1 EC50
T1 construct: purchased Carna Biosciences (printed only as 'Biosciences') 02-147
Protocol: (§1) Compounds disclosed herein were evaluated for their ability to activate AMPKα1β1γ1 by measuring phosphorylation of a commercially available fluorescent AMPK substrate using the LabChip® EZ Reader microfluidic system that is based on a mobility shift principle in which unphosphorylated fluorescent substrates may be separated and distinguished from phosphorylated fluorescent substrates due to the difference in negative charge. Briefly, compounds were serial diluted 3-fold in 100% DMSO for an 11-point dose-response curve. A 20 nL aliquot of diluted compound was transferred into a 384-well plate using a liquid handler (Labcyte Inc., Echo 550). A pre-prepared solution (10 mM MgCl2, 0.01% Brij-35, 2 mM DTT, 0.05% BSA, 1 mM EGTA, and 50 mM HEPES pH 7.5) was combined with 0.83 nM AMPKα1β1γ1 (Carna Biosciences, 02-113). The enzyme solution (15 μL) was aliquoted into each well and the plate was incubated at 24° C. for 30 min. A second stock solution (10 mM MgCl2, 0.01% Brij-35, 2 mM DTT, 0.05% BSA, 1 mM EGTA, 800 μM ATP, and 50 mM HEPES pH 7.5) was combined with 6 μM fluorescent peptide substrate for AMPKal (Perkin Elmer, 760351). The kinase reaction was initiated by adding 5 μL of the second solution containing substrate and ATP to each well. The plate was incubated at 24° C. for 90 minutes and 75 μL of 0.5 M EDTA was added to terminate the reaction. The plates were analyzed using a LabChip® EZ Reader (Perkin Elmer, 122919) and the effective concentration to achieve 50% of the maximal activity (EC50) was calculated after normalizing to the DMSO vehicle control.
The same procedure above was also used to measure activation of the AMPKα1β2γ1 isoform, replacing AMPKα1β1γ1 with AMPKα1β2γ1 Biosciences 02-147).

[2] = biological target: T2, AMPKα1β1γ1 (Homo sapiens, UniProt Q13131+Q9Y478); assay: AMPKα1β1γ1 biochemical assay (LabChip EZ Reader mobility shift); settings: EC50 of Table 1; activation, normalized to DMSO vehicle control; read-out: Human AMPK AMPKα1β1γ1 EC50
T2 construct: purchased Carna Biosciences 02-113
Protocol: as §1

T1 sequence (Q13131 whole entry, canonical isoform): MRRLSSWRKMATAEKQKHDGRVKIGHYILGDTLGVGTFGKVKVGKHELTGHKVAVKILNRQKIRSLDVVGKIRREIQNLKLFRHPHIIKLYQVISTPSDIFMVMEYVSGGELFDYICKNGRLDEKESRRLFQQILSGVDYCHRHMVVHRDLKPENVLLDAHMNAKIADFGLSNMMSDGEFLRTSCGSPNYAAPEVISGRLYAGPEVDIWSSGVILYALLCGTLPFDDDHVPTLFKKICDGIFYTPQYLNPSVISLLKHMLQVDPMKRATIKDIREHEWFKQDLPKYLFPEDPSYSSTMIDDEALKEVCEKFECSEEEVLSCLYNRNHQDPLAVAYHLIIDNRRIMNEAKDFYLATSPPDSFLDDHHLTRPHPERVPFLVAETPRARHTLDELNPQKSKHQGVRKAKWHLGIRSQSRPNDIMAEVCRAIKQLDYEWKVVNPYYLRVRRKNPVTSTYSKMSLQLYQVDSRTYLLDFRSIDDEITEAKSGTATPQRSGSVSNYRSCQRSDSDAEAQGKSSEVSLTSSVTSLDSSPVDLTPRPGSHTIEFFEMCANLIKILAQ
T1 sequence (O43741 whole entry, canonical isoform): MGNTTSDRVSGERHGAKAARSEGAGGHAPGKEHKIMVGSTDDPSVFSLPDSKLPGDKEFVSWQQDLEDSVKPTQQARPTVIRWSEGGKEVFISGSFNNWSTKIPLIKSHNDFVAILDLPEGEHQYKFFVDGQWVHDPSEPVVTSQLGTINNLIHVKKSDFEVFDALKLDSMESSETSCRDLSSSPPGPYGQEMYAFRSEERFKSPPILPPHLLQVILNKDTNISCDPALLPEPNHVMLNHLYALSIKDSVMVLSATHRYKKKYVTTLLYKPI
T1 sequence (P54619 whole entry partner, canonical isoform): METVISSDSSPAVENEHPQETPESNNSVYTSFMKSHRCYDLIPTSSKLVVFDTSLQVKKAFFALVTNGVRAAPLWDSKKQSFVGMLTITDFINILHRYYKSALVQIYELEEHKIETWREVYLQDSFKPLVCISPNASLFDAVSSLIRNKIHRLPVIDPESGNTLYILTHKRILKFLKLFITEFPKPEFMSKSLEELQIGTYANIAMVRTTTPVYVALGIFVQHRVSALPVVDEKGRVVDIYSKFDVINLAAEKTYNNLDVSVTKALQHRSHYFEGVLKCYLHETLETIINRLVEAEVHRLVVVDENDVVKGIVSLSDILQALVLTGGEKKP
T2 sequence (Q13131 whole entry): as the sequence (Q13131 whole entry, canonical isoform) above
T2 sequence (Q9Y478 whole entry): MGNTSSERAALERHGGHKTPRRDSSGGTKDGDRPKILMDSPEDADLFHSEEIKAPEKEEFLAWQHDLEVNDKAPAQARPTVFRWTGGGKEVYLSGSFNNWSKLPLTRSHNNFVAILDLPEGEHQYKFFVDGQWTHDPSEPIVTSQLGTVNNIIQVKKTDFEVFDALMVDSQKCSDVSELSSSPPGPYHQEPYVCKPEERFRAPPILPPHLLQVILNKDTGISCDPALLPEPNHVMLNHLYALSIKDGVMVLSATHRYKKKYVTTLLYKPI
T2 sequence (P54619 whole entry partner): as the sequence (P54619 whole entry partner, canonical isoform) above

SMILES | EC50 [1] | EC50 [2]
COc1nc(N2CC3CC3(C#N)C2)ccc1-c1cc2c(C(=O)O)c[nH]c2cc1Cl (racemic) [Example 15, racemic-6-chloro-5-(6-(1-cyano-3-azabicyclo[3.1.0]hexan-3-yl)-2-methoxypyridin-3-yl)-1H-indole-3-carboxylic acid] | > 10 µM | 0.05 to 0.1 µM
COc1nc(N2CC3(CCC3O)C2)ccc1-c1cc2c(C(=O)O)c[nH]c2cc1Cl (racemic) [Example 25, racemic-6-chloro-5-(6-(5-hydroxy-2-azaspiro[3.3]heptan-2-yl)-2-methoxypyridin-3-yl)-1H-indole-3-carboxylic acid] | > 10 µM | 0.05 to 0.1 µM
COc1nc(N2CC3CC3(O)C2)ccc1-c1cc2c(C(=O)O)c[nH]c2cc1Cl (racemic) [Example 26, racemic-6-chloro-5-(6-(1-hydroxy-3-azabicyclo[3.1.0]hexan-3-yl)-2-methoxypyridin-3-yl)-1H-indole-3-carboxylic acid] | > 10 µM | ≤ 0.05 µM
COc1nc(N2CC3(COC3)C2)ccc1-c1cc2c(C(=O)O)c[nH]c2cc1Cl [Example 1, 6-chloro-5-(2-methoxy-6-(2-oxa-6-azaspiro[3.3]heptan-6-yl)pyridin-3-yl)-1H-indole-3-carboxylic Acid] | > 10 µM | ≤ 0.05 µM
COc1nc(N2C[C@@H]3[C@@H](CO)[C@@H]3C2)ccc1-c1cc2c(C(=O)O)c[nH]c2cc1Cl [Example 3, 6-chloro-5-(6-((trans)-6-(hydroxymethyl)-3-azabicyclo [3.1.0]hexan-3-yl)-2-methoxypyridin-3-yl)-1H-indole-3-carboxylic acid] | 0.25 to 10 µM | ≤ 0.05 µM
COc1nc(N2CC3(CC(O)C3)C2)ccc1-c1cc2c(C(=O)O)c[nH]c2cc1Cl [Example 4, 6-chloro-5-(6-(6-hydroxy-2-azaspiro[3.3]heptan-2-yl)-2-methoxypyridin-3-yl)-1H-indole-3-carboxylic acid] | > 10 µM | ≤ 0.05 µM
COc1nc(N2CC3(CN(C(=O)OC(C)(C)C)C3)C2)ccc1-c1cc2c(C(=O)O)c[nH]c2cc1Cl [Example 6, 5-(6-(6-(tert-butoxycarbonyl)-2,6-diazaspiro[3.3]heptan-2-yl)-2-methoxypyridin-3-yl)-6-chloro-1H-indole-3-carboxylic acid] | > 10 µM | 0.05 to 0.1 µM
COc1nc(N2CC3(CCCO3)C2)ccc1-c1cc2c(C(=O)O)c[nH]c2cc1Cl [Example 8, 6-chloro-5-(2-methoxy-6-(5-oxa-2-azaspiro[3.4]octan-2-yl)pyridin-3-yl)-1H-indole-3-carboxylic acid] | > 10 µM | ≤ 0.05 µM
COc1nc(N2CC3(CC3)C2)ccc1-c1cc2c(C(=O)O)c[nH]c2cc1Cl [Example 12, 5-[6-(5-azaspiro[2.3]hexan-5-yl)-2-methoxy-3-pyridyl]-6-chloro-1H-indole-3-carboxylic acid] | > 10 µM | ≤ 0.05 µM
COc1nc(N2CC3(CCC3)C2)ccc1-c1cc2c(C(=O)O)c[nH]c2cc1Cl [Example 13, 6-chloro-5-(2-methoxy-6-(2-azaspiro[3.3]heptan-2-yl)pyridin-3-yl)-1H-indole-3-carboxylic acid] | > 10 µM | ≤ 0.05 µM
COc1nc(N2CC3(CCC(=O)N3)C2)ccc1-c1cc2c(C(=O)O)c[nH]c2cc1Cl [Example 17, 6-chloro-5-(2-methoxy-6-(6-oxo-2,5-diazaspiro[3.4]octan-2-yl)pyridin-3-yl)-1H-indole-3-carboxylic acid] | > 10 µM | 0.05 to 0.1 µM
COc1nc(N2CC3(CCNC3=O)C2)ccc1-c1cc2c(C(=O)O)c[nH]c2cc1Cl [Example 18, 6-chloro-5-(2-methoxy-6-(5-oxo-2,6-diazaspiro[3.4]octan-2-yl)pyridin-3-yl)-1H-indole-3-carboxylic acid] | > 10 µM | ≤ 0.05 µM
COc1nc(N2CC3(CC(=O)N(C)C3)C2)ccc1-c1cc2c(C(=O)O)c[nH]c2cc1Cl [Example 22, 6-chloro-5-(2-methoxy-6-(6-methyl-7-oxo-2,6-diazaspiro[3.4]octan-2-yl)pyridin-3-yl)-1H-indole-3-carboxylic acid] | > 10 µM | ≤ 0.05 µM
COc1nc(N2C[C@@H]3[C@H](C2)[C@H]3OC)ccc1-c1cc2c(C(=O)O)c[nH]c2cc1Cl [Example 23, 6-chloro-5-(2-methoxy-6-((trans)-6-methoxy-3-azabicyclo[3.1.0]hexan-3-yl)pyridin-3-yl)-1H-indole-3-carboxylic acid] | > 10 µM | 0.05 to 0.1 µM
COc1nc(N2CC3(COC3)C2)ccc1-c1cc2c(C(=O)O)c[nH]c2cc1F [Example 40, 6-fluoro-5-(2-methoxy-6-[2-oxa-6-azaspiro[3.3]hentan-6-yl]pyridin-3-yl)-1H-indole-3-carboxylic Acid] | – | 0.1 to 0.25 µM

Further lines, results first:

EC50 [1] | EC50 [2] | SMILES
> 10 µM | ≤ 0.05 µM | COc1nc(N2C[C@H]3CCO[C@H]3C2)ccc1-c1cc2c(C(=O)O)c[nH]c2cc1Cl (racemic) [Example 28, racemic-6-chloro-5-(6-((cis)-hexahydro-5H-furo[2,3-c]pyrrol-5-yl)-2-methoxypyridin-3-yl)-1H-indole-3-carboxylic acid]
> 10 µM | ≤ 0.05 µM | COc1nc(N2CCC3(COC3)C2)ccc1-c1cc2c(C(=O)O)c[nH]c2cc1Cl [Example 5, 6-chloro-5-(2-methoxy-6-(2-oxa-6-azaspiro[3.4]octan-6-yl)pyridin-3-yl)-1H-indole-3-carboxylic acid]
> 10 µM | ≤ 0.05 µM | COC[C@@H]1[C@H]2CN(c3ccc(-c4cc5c(C(=O)O)c[nH]c5cc4Cl)c(OC)n3)C[C@@H]12 [Example 9, 6-chloro-5-(2-methoxy-6-((trans)-6-(methoxymethyl)-3-azabicyclo[3.1.0]hexan-3-yl)pyridin-3-yl)-1H-indole-3-carboxylic acid]
> 10 µM | ≤ 0.05 µM | COc1nc(N2CC3(CC(N)C3)C2)ccc1-c1cc2c(C(=O)O)c[nH]c2cc1Cl [Example 10, 5-(6-(6-amino-2-azaspiro[3.3]heptan-2-yl)-2-methoxypyridin-3-yl)-6-chloro-1H-indole-3-carboxylic Acid]
> 10 µM | ≤ 0.05 µM | COc1nc(N2CC3(CNC(=O)C3)C2)ccc1-c1cc2c(C(=O)O)c[nH]c2cc1Cl [Example 19, 6-chloro-5-(2-methoxy-6-(7-oxo-2,6-diazaspiro[3.4]octan-2-yl)pyridin-3-yl)-1H-indole-3-carboxylic acid]
> 10 µM | ≤ 0.05 µM | COc1nc(N2CC3(CCOC3)C2)ccc1-c1cc2c(C(=O)O)c[nH]c2cc1Cl [Example 21, 6-chloro-5-(2-methoxy-6-(6-oxa-2-azaspiro[3.4]octan-2-yl)pyridin-3-yl)-1H-indole-3-carboxylic acid]
0.25 to 10 µM | ≤ 0.05 µM | COc1nc(N2C[C@@H]3[C@@H](O)[C@@H]3C2)ccc1-c1cc2c(C(=O)O)c[nH]c2cc1Cl [Example 24, 6-chloro-5-(6-((trans)-6-hydroxy-3-azabicyclo[3.1.0]hexan-3-yl)-2-methoxypyridin-3-yl)-1H-indole-3-carboxylic acid]
– | ≤ 0.05 µM | COc1nc(N2CC3CC(C2)O3)ccc1-c1cc2c(C(=O)O)c[nH]c2cc1Cl [Example 39, 5-(6-(6-oxa-3-azabicyclo[3.1.1]heptan-3-yl)-2-methoxypyridin-3-yl)-6-chloro-1H-indole-3-carboxylic acid]
